Test results taken from publication PMC5472064 (Organic & biomolecular chemistry, 2017).
Like-named read-outs stand apart in the source and are kept apart here.

Target: p97 ATPase WT (Homo sapiens, UniProt P55072)
Assay: ADPGlo biochemical assay of p97 ATPase inhibition
Details: for effect of structural change on activity/potency (in words): p97 inhibition, versus indole NH / amide analogs

Sequence of p97 ATPase WT (P55072 whole entry): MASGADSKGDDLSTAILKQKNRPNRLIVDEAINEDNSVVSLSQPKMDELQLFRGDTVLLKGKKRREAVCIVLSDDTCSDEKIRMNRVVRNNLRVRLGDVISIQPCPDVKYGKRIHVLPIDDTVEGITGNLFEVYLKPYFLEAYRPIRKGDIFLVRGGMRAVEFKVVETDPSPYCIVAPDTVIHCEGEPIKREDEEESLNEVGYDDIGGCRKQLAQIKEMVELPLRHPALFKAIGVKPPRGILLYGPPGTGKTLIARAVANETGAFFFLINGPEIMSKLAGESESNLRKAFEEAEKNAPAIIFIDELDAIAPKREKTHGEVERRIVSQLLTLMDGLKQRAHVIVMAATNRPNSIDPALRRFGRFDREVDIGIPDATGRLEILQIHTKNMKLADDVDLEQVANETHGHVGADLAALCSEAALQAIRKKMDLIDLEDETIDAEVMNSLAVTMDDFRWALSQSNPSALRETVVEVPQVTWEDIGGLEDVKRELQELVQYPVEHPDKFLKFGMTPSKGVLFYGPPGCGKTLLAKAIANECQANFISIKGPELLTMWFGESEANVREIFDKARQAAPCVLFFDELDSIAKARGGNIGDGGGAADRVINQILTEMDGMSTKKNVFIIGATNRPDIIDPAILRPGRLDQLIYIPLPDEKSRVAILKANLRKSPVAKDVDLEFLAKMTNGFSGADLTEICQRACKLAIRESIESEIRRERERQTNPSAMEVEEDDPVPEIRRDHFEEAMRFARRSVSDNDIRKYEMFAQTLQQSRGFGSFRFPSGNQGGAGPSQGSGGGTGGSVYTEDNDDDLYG

IC50 [µM]	Compound	further results
5.2	CC(C)N1CCN(CCNC2CCN(c3cccc(-c4ccc5ccccc5c4)c3)CC2)CC1 [UPCDC30222, N-(2-(4-Isopropylpiperazin-1-yl)ethyl)-1-(3-(naphthalen-2-yl)phenyl)piperidin-4-amine]	effect of structural change on activity/potency (in words): greatly diminishes
> 50	CC(C)N1CCN(CCNC2CCN(c3cccc(-c4cc5ccccc5n4C)c3)CC2)CC1 [UPCDC30201, N-(2-(4-Isopropylpiperazin-1-yl)ethyl)-1-(3-(1-methyl-1H-indol-2-yl)phenyl)piperidin-4-amine]	effect of structural change on activity/potency (in words): ablates
0.19	CC(C)N1CCN(CCNC2CCN(c3cccc(-c4cc5cc(Cl)ccc5[nH]4)c3)CC2)CC1 [UPCDC30317, 1-(3-(5-Chloro-1H-indol-2-yl)phenyl)-N-(2-(4-isopropylpiperazin-1-yl)ethyl)piperidin-4-amine]	
0.1	CC(C)N1CCN(CCNC2CCN(c3cccc(-c4cc5cc(C(N)=O)ccc5[nH]4)c3)CC2)CC1 [UPCDC30310, 2-(3-(4-((2-(4-Isopropylpiperazin-1-yl)ethyl)amino)piperidin-1-yl)phenyl)-1H-indole-5-carboxamide]	
0.13	COC(=O)c1ccc2[nH]c(-c3cccc(N4CCC(NCCN5CCN(C(C)C)CC5)CC4)c3)cc2c1 [UPCDC30341, Methyl 2-(3-(4-((2-(4-isopropylpiperazin-1-yl)ethyl)amino)piperidin-1-yl)phenyl)-1H-indole-5-carboxylate]	
38.5	CC(C)N1CCN(CCNC2CCN(c3cccc(-c4nc5ccccc5[nH]4)c3)CC2)CC1 [UPCDC30250, 1-(3-(1H-Benzo[d]imidazol-2-yl)phenyl)-N-(2-(4-isopropylpiperazin-1-yl)ethyl)piperidin-4-amine]	reduction of binding affinity (benzimidazole versus indole): > 2 orders of magnitude
4	CC(C)N1CCN(CCNC2CCN(c3cccc(-c4cc5cnccc5[nH]4)c3)CC2)CC1 [UPCDC30345, 1-(3-(1H-Pyrrolo[3,2-c]pyridin-2-yl)phenyl)-N-(2-(4-isopropylpiperazin-1-yl)ethyl)piperidin-4-amine]	

More lines, now with the values behind:

Compound	IC50 [µM]	further results
Cc1ccc(N2CCC(NCCN3CCN(C(C)C)CC3)CC2)cc1-c1cc2cc(F)ccc2[nH]1 [UPCDC30346, 1-(3-(5-Fluoro-1H-indol-2-yl)-4-methylphenyl)-N-(2-(4-isopropylpiperazin-1-yl)ethyl)piperidin-4-amine]	0.05	
CNC(=O)c1ccc2[nH]c(-c3cccc(N4CCC(NCCN5CCN(C(C)C)CC5)CC4)c3)cc2c1 [UPCDC30367, 2-(3-(4-((2-(4-Isopropylpiperazin-1-yl)ethyl)amino)piperidin-1-yl)phenyl)-N-methyl-1H-indole-5-carboxamide]	0.45	
CC(C)N1CCN(CCNC2CCN(c3cccc(-c4cc5cc(F)ccc5[nH]4)c3)CC2)CC1 [UPCDC30245]		IC50 (read-out: ADPGlo IC50, 20 nM p97 ATPase WT, 100 μM ATP, repeated multiple times): 0.055 µM
Cc1ccc(N2CCC(NCCN3CCN(C(C)C)CC3)CC2)cc1-c1cc2cc(C#N)ccc2[nH]1 [UPCDC30361, 2-(5-(4-((2-(4-Isopropylpiperazin-1-yl)ethyl)amino)piperidin-1-yl)-2-methylphenyl)-1H-indole-5-carbonitrile]	0.087	
CC(C)N1CCN(CCNC2CCN(c3cccc(-c4cc5cc(C(=O)N(C)C)ccc5[nH]4)c3)CC2)CC1 [UPCDC30368, 2-(3-(4-((2-(4-Isopropylpiperazin-1-yl)ethyl)amino)piperidin-1-yl)phenyl)-N,N-dimethyl-1H-indole-5-carboxamide]		effect of structural change on activity/potency (in words): near loss of all potency
CC(C)N1CCN(CCNC2CCN(c3cccc(-c4cc5cc(F)cnc5[nH]4)c3)CC2)CC1 [UPCDC30381, 1-(3-(5-Fluoro-1H-pyrrolo[2,3-b]pyridin-2-yl)phenyl)-N-(2-(4-isopropylpiperazin-1-yl)ethyl)piperidin-4-amine]	4.74	
CC(C)N1CCN(CCNC2CCN(c3ccc4c(c3)-c3[nH]c5ccccc5c3CC4)CC2)CC1 [UPCDC30206, 1-(6,11-Dihydro-5H-benzo[a]carbazol-2-yl)-N-(2-(4-isopropylpiperazin-1-yl)ethyl)piperidin-4-amine]	0.39	
